pIC50: −log10 of the molar value. No end group written: not given here.
Assays:
human Nav1.6 = molecular target: T1, human Nav1.6 (Homo sapiens, UniProt Q9UQD0); type: cell-based
T1 construct: expressed in transfected cells

human Nav1.7 = molecular target: T2, human Nav1.7 (Homo sapiens, UniProt Q15858, W1161R); type: cell-based
T2 construct: expressed in transfected cells

C57Bl/6 mice = assay: CFA model of inflammatory pain, thermal hyperalgesia (Hargreaves test); type: in vivo; details: for Thermal MPE %: CFA model, mice, mean±s.e.m. (n)
Method: Male C57Bl/6 mice (24-26 g), ordered from Charles River and housed individually, were used for this study.
This box consists of a chamber with a raised glass floor maintained at a constant temperature (27° C.). The thermal nociceptive stimulus originates from a projection bulb light beam below the glass surface. The light beam is aimed at the area between toris (center plantar). The “start” button will turn on the light and start the timer. Movements (such as a sudden withdrawal) of the stimulated paw will trigger the switch to turn off the light and stop the timer. […] If no movement occurs, the bulb will be turned off after 20 seconds (cutoff) to prevent tissue injury. The animals were allowed to habituate on the glass surface for 30-60 minutes before PWL measurement.
Percent maximum possible effect (MPE %)=(T1−T0)/(Tc−T0)×100%. T0: threshold on day0 (post-CFA, pre-pump); T1: threshold on day1 post pump implantation; Tc: cut-off of the test (20 s for the Hargreaves test and 2 g for the Von Frey test)
Animals were anesthetized with isoflurane (4% induction and 2% maintenance) and 20 μL of 100% Complete Freund's Adjuvant (CFA; Sigma-Aldrich; Saint Louis, Mo.) was injected into the center plantar area on one hind paw using a 27 gauge needle attached to a 50 μL Hamilton syringe. Carrageenan model: Animals were anesthetized with isoflurane (4% induction and 2% maintenance) and 25 μL of 2% A-carrageenan (Sigma-Aldrich; Saint Louis, Mo.) dissolved in normal saline was injected into the center plantar area on hind paws using an insulin syringe (BD; Franklin Lakes, N.J.).
Alzet micro-osmotic mini pumps (Durect Corporation Model 1003D and 2001D) were filled and primed per manufacturer's guide. Mice were anesthetized with isoflurane (5% induction; 2% maintenance). Their backs were shaved, wiped down with isopropyl alcohol and povidone iodine, and a small incision was made between the scapulae. Using a pair of forceps or hemostat, a small pocket was formed by spreading the subcutaneous connective tissues apart. The pump was inserted into the pocket with the flow moderator pointing away from the incision. The skin incision was then closed using 7 mm staples and the animals were allowed to recover in their home cages.
Data are represented as mean±s.e.m. Prism (Graphpad Software Inc., La Jolla, Calif.) was used for graphing and statistical analysis. For comparison of threshold values over time, a two-way ANOVA followed by Bonferroni's multiple comparison test was used with a significance level of p<0.05. Hotplate and MPE % data were analyzed by one-way ANOVA followed by Bonferroni's multiple comparison test.

[1] = 228 μg/day/mouse by subcutaneous osmotic mini-pump
[2] = 1824 μg/day/mouse by subcutaneous osmotic mini-pump
[3] = 684 and 1824 μg/day, subcutaneous osmotic mini-pump

T1 sequence (Q9UQD0 whole entry): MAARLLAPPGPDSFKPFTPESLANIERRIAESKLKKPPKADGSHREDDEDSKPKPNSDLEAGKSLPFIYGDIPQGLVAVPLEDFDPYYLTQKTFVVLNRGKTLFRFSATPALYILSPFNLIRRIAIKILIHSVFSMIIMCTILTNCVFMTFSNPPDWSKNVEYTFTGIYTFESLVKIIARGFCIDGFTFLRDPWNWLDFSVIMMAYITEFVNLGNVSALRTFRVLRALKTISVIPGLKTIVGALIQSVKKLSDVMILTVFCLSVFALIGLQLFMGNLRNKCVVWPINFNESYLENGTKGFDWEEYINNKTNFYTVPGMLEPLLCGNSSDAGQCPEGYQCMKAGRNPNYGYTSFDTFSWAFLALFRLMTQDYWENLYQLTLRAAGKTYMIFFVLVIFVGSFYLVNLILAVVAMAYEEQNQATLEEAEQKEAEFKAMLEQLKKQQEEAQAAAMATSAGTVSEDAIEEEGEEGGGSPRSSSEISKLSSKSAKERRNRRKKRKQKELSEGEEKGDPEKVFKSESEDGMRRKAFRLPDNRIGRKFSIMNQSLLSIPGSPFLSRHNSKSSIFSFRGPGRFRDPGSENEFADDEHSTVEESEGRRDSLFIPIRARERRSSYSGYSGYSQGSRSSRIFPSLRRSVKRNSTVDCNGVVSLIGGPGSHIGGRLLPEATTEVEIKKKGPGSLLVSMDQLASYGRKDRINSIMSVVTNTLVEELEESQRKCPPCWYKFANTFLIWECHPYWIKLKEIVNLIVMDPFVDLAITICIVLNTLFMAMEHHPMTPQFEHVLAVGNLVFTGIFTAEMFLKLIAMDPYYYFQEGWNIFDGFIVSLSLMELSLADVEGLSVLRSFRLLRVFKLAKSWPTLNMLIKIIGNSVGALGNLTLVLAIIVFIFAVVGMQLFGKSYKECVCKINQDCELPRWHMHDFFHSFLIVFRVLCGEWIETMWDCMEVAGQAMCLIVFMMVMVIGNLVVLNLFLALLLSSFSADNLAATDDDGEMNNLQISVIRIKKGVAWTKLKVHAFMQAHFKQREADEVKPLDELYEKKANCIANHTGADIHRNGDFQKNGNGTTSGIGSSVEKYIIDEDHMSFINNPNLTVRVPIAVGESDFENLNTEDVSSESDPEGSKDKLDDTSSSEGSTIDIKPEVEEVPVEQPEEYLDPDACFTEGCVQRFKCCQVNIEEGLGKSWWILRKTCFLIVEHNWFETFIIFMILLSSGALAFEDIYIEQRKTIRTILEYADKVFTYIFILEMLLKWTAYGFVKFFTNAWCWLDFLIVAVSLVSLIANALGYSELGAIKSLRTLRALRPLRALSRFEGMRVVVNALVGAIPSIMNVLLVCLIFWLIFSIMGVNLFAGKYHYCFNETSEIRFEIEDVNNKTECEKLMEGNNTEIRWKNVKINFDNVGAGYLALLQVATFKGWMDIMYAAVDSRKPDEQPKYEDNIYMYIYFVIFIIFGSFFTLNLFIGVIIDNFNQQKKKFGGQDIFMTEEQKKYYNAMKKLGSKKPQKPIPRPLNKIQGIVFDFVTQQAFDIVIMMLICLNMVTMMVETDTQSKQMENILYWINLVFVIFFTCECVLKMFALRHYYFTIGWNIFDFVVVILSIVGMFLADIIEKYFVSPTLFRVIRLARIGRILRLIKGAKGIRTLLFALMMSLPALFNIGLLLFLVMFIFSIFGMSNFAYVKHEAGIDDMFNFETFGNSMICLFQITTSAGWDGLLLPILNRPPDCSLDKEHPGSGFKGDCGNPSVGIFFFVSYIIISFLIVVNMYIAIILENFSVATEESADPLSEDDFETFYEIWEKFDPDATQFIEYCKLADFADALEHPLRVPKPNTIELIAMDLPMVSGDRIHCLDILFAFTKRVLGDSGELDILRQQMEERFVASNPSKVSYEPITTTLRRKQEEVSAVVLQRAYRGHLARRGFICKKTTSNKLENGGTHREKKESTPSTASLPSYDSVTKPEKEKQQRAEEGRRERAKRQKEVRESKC

Ac-QCQKWMQTCDAERKCCEGFSCTLWCKKKLW-NH2 [(-GP) N-Ac-NV1D2974-NH2]
selectivity for Nav1.7 compared to recombinant Protoxin-II (human Nav1.6): improved selectivity

GPQCQKWMQTCDRERKCCEGFVCTLWCRKKLWGGGGSAPAPAPAPAPAPAPAPAPAPAPAPAPAPAPGGGGSGWCGDPGATCGKLRLYCCSGFCDAYTKTCKDKSSA [NV1D3825]
pIC50 (human Nav1.7): 6.71

GPQCQKWMQTCDAERKCCEGFVCRLWCKKKLWGSAPAPAPAPAPAPAPAPAPAPGSCCNCSSKWCRDHSRCCGR [NV1D3259]
pIC50 (human Nav1.7): 7.26

Ac-QCQKWMQTCDRERKCCEGFVCTLWCRKKLW-NH2 [(-GP) N-Ac-NV1D3034-NH2]
selectivity for Nav1.7 compared to recombinant Protoxin-II (human Nav1.6): improved selectivity

GPYCQKWMQTCDANRKCCEGFSCRLWCKKKLW-NH2 [NV1D3586-NH2]
selectivity for Nav1.7 compared to recombinant Protoxin-II (human Nav1.6): improved selectivity

GPQCQKWMQTCDRTRKCCEGFVCTLWCRKKLW-NH2 [NV1D3368-NH2]
Thermal MPE % (C57Bl/6 mice; [1]): 27 ± 4 (4) %
Thermal MPE % (C57Bl/6 mice; [2]): 55 ± 15 (6) %
reversal of CFA-induced thermal hyperalgesia (C57Bl/6 mice; dose not given): readily reversed
selectivity for Nav1.7 compared to recombinant Protoxin-II (human Nav1.6): improved selectivity

GPRCQKWMQTCDAERKCCEGFVCRLWCKKKLW-OH (cysteine pairing not given here) [NV1D2772]
selectivity for Nav1.7 compared to recombinant Protoxin-II (human Nav1.6): improved selectivity

GPSHSNTQTLAKAPEHTGAPAPAPAPAPAPAPAPAPAPQCQKWMQTCDRERKCCEGFVCTLWCRKKLW [NV1D3774]
pIC50 (human Nav1.7): 7.05

GPQCQKWMQTCDRERKCCQGFVCTLWCRKKLW-OH (cysteine pairing not given here) [NV1D3388]
selectivity for Nav1.7 compared to recombinant Protoxin-II (human Nav1.6): improved selectivity

GPQCQKWMQTCDRERKCCEGFVCTLWCRKKLWGSGGGGSAPAPAPAPAPAPAPAPAPAPGGGGSGSCCNCSSKWCRDHSRCC [NV1D3829]
pIC50 (human Nav1.7): 6.91

GPACQKWMQTCDRNRKCCEGFVCTLWCRKKLW-OH (cysteine pairing not given here) [NV1D3541]
selectivity for Nav1.7 compared to recombinant Protoxin-II (human Nav1.6): improved selectivity

GPQCQKWMQTCDRERKCCEGFVCTLWCRKKLW-NH-butyl [NV1D3034-NH-butyl]
selectivity for Nav1.7 compared to recombinant Protoxin-II (human Nav1.6): improved selectivity

GPCCNCSSKWCRDHSRCCGRGSGGGGSAPAPAPAPAPAPAPAPAPAPGGGGSGSQCQKWMQTCDRERKCCEGFVCTLWCRKKLW [NV1D3830]
pIC50 (human Nav1.7): 7.05

GPGWCGDPGATCGKLRLYCCSGFCDSYTKTCKDKSSAGGGGSAPAPAPAPAPAPAPAPAPAPAPAPAPAPAPGGGGSQCQKWMQTCDRERKCCEGFVCTLWCRKKLW [NV1D3822]
pIC50 (human Nav1.7): 7.13

GPQCQKWMQTCDRERKCCEGFVCTLWCRKKLWGSAPAPAPAPAPAPAPAPAPAPGSCCNCSSKWCRDHSRCCGR [NV1D3798]
pIC50 (human Nav1.7): 7.02

GPCCNCSSKWCRDHSRCCGSAPAPAPAPAPAPAPAPAPAPGSQCQKWMQTCDRERKCCEGFVCTLWCRKKLW [NV1D3795]
pIC50 (human Nav1.7): 7.00

GPCCNCSSKWCRDHSRCCGSAPAPAPAPAPAPAPAPAPAPGSQCQKWMQTCDAERKCCEGFVCRLWCKKKLW [NV1D3262]
pIC50 (human Nav1.7): 7.05

GPCCNCSSKWCRDHSRCCGRGSAPAPAPAPAPAPAPAPAPAPGSQCQKWMQTCDRERKCCEGFVCTLWCRKKLW [NV1D3793]
pIC50 (human Nav1.7): 7.19

GPQCQKWMQTCDRERKCCEGFVCTLWCRKKLWGSAPAPAPAPAPGSCCNCSSKWCRDHSRCCGR [NV1D3800]
pIC50 (human Nav1.7): 7.22

GPCCNCSSKWCRDHSRCCGRGSAPAPAPAPAPAPAPAPAPAPGSQCQKWMQTCDAERKCCEGFVCRLWCKKKLW [NV1D3260]
pIC50 (human Nav1.7): 7.24

GPQCQKWMQTCDARRKCCEGFVCRLWCKKKLW-OH (cysteine pairing not given here) [NV1D3006]
selectivity for Nav1.7 compared to recombinant Protoxin-II (human Nav1.6): improved selectivity

GPQCQKWMQTCDRERKCCEGFVCTLWCRKKLWGSGGGGSAPAPAPAPAPAPAPAPAPAPGGGGSGSCCNCSSKWCRDHSRCCGR [NV1D3828]
pIC50 (human Nav1.7): 7.06

GPGWCGDPGATCGKLRLYCCSGFCDAYTKTCKDKSSAGGGGSAPAPAPAPAPAPAPAPAPAPAPAPAPAPAPGGGGSQCQKWMQTCDRERKCCEGFVCTLWCRKKLW [NV1D3824]
pIC50 (human Nav1.7): 6.96

GPQCQKWMQTCDRERKCCEGFVCTLWCRKKLW-NH-methyl [NV1D3034-NH-methyl]
Thermal MPE % (C57Bl/6 mice; [2]): 49 ± 17 (6) %
reversal of CFA-induced thermal hyperalgesia (C57Bl/6 mice; dose not given): readily reversed
selectivity for Nav1.7 compared to recombinant Protoxin-II (human Nav1.6): improved selectivity

GPYCQKWMQTCDANRKCCEGFSCRLWCKKKLW-OH (cysteine pairing not given here) [NV1D3586]
selectivity for Nav1.7 compared to recombinant Protoxin-II (human Nav1.6): improved selectivity

GPQCQKWMQTCDRERKCCEGFVCTLWCRKKLWGSAPAPAPAPAPGSCCNCSSKWCRDHSRCC [NV1D3799]
pIC50 (human Nav1.7): 7.30

GPQCQKWMQTCDAERKCCEGFSCTLWCKKKLW-OH (cysteine pairing not given here) [NV1D2974]
selectivity for Nav1.7 compared to recombinant Protoxin-II (human Nav1.6): improved selectivity

GPQCQKWMQTCDRERKCCEGFVCTLWCRKKLW-NH2 [NV1D3034-NH2]
selectivity for Nav1.7 compared to recombinant Protoxin-II (human Nav1.6): improved selectivity

GPQCQKWMQSCDRERKCCEGFVCTLWCRKKLW-OH (cysteine pairing not given here) [NV1D3359]
selectivity for Nav1.7 compared to recombinant Protoxin-II (human Nav1.6): improved selectivity

GPQCQKWMQTCDAERKCCEGFVCRLWCKKKLW-NH2 [NV1D2775-NH2]
selectivity for Nav1.7 compared to recombinant Protoxin-II (human Nav1.6): improved selectivity

GPCCNCSSKWCRDHSRCCGRGSAPAPAPAPAPGSQCQKWMQTCDAERKCCEGFVCRLWCKKKLW [NV1D3256]
pIC50 (human Nav1.7): 7.25

GPACQKWMQTCDANRKCCEGFSCRLWCKKKLW-OH (cysteine pairing not given here) [NV1D3587]
selectivity for Nav1.7 compared to recombinant Protoxin-II (human Nav1.6): improved selectivity

GPQCQKWMQTCDRERKCCEGFVCTLWCRKKLWGSAPAPAPAPAPAPAPAPAPAPGSCCNCSSKWCRDHSRCC [NV1D3797]
pIC50 (human Nav1.7): 7.04

GPQCQKWMQTCDRERKCCEGFVCTLWCRKKLW-OH (cysteine pairing not given here) [NV1D3034]
reversal of CFA-induced thermal hyperalgesia (C57Bl/6 mice; [3]): completely reversed
Thermal MPE % (C57Bl/6 mice; [1]): 22 ± 6 (6) %
Thermal MPE % (C57Bl/6 mice; [2]): 50 ± 6 (8) %

GPQCQKWMQTCDAERKCCEGFSCTLWCKKKLW-NH2 [NV1D2974-NH2]
selectivity for Nav1.7 compared to recombinant Protoxin-II (human Nav1.6): improved selectivity

GPCRTIGPSVCAPAPAPAPAPAPAPAPAPAPQCQKWMQTCDRERKCCEGFVCTLWCRKKLW [NV1D3832]
pIC50 (human Nav1.7): 7.05

GPQCQKWMQTCDRTRKCCEGFVCTLWCRKKLW-OH (cysteine pairing not given here) [NV1D3368]
reversal of CFA-induced thermal hyperalgesia (C57Bl/6 mice; [3]): fully reversed
Thermal MPE % (C57Bl/6 mice; [1]): 23 ± 8 (7) %
Thermal MPE % (C57Bl/6 mice; [2]): 47 ± 6 (8) %
selectivity for Nav1.7 compared to recombinant Protoxin-II (human Nav1.6): improved selectivity

GPCCNCSSKWCRDHSRCCGSAPAPAPAPAPGSQCQKWMQTCDRERKCCEGFVCTLWCRKKLW [NV1D3796]
pIC50 (human Nav1.7): 6.96

GPQCQKWMQTCDRNRKCCEGFVCTLWCRKKLW-OH (cysteine pairing not given here) [NV1D3044]
selectivity for Nav1.7 compared to recombinant Protoxin-II (human Nav1.6): improved selectivity
